Test results reported in patent publication US10494412B2, “Peptides” (HOX THERAPEUTICS LIMITED, priority 2015, dated 2019).
Like-named read-outs stand apart in the source and are kept apart here. Where no end group is shown, it is not given here.

Key:
PC3 cells [1] = assay: cells; conditions: Homo sapiens, PC-3, 2 h, read-out: PC3 2 hr IC50 (±SD)
Protocol: (§1) The cytotoxicity of the peptides on the prostate cancer derived cell lines DU145 and PC3 was tested as previously described (Morgan et al. 2014, ibid), using the MTT assay for metabolic activity. The cytotoxic drug Docetaxel (a standard chemotherapeutic drug) was included as a positive control.
(§2) Doses are in μM (micromoles), and the mean value from 3 experiments is given along with the standard deviation.

HOXB4/PBX2 dimers = target: T1, HOXB4/PBX2 dimers (Homo sapiens, UniProt P40425); assay: Cell based ELISA assay for HOX/PBX binding; conditions: MDA-MB-231 cells, 4 hours, compared to DMSO, SEM, read-out: % inhibition of HOXB4/PBX2 dimer formation
T1 construct: endogenous in cells; host or cells: MDA-MB-231
T1 sequence (P40425 1-430): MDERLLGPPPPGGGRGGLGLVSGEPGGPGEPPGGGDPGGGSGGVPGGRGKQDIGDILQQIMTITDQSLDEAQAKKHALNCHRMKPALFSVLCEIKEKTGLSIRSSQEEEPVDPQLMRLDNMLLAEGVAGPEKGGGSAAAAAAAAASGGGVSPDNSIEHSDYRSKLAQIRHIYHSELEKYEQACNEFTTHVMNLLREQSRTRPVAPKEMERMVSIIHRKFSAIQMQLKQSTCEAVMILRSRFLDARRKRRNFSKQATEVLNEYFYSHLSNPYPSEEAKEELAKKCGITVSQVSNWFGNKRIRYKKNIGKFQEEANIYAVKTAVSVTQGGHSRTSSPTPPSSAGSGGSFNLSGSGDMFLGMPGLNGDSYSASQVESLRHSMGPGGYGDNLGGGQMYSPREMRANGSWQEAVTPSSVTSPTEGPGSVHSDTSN
Protocol: In order to directly assess the ability of each peptide to disrupt HOX/PBX binding a cell-based assay system was developed that could allow the formation of HOX/PBX/DNA dimers. Cultured MDA-MB-231 cells were treated with 10 μM of each peptide for 4 hours and then used to generate a cell lysate using a standard preparation method as described below. HOXB4/PBX2 dimers were then measured using an ELISA-based system as detailed in the table below. The values from this assay are expressed as % inhibition of dimer formation compared to a negative control (DMSO).
1. Collect approximately 5.0×10^7 cells by low-speed centrifugation at RT for 5 min. Carefully remove culture medium.
2. Wash the cellular debris (pellet) with PBS at RT, and collect by low-speed centrifugation. Carefully remove supernatant (total protein).
3. Add 1.0 ml of pre-cold RIPA buffer (or other appropriate buffer) with freshly added (Protease Inhibitors) and/or (Phosphatase Inhibitors). Gently resuspend cells in RIPA buffer with a pipet and incubate on ice for 30 min.
4. Further disrupt and homogenize cells by passing through a 21-gauge needle, dounce homogenization or sonication, taking care not to raise the temperature of the lysate. (Optional: Add 10 μl of 10 mg/ml PMSF stock) Incubate 30 min on ice.
5. Transfer to microcentrifuge tube(s) and centrifuge at 10,000×g for 10 min at 4° C. […]

[2] = Body weight of PC3 tumour bearing mice; type: in vivo; conditions: intratumoural
Protocol: PC3 cells were injected subcutaneously into female or male Balb-c nude mice aged 6 to 12 weeks (Harlan, UK). When the tumour size reached 100 mm^3 mice were injected intratumouraly with PBS, HXR9 or HTL001 at the intervals shown in FIG. 3. Mice were sacrificed when the tumour size reached 1000 mm^3 or at the end of the experiment (36 days). Tumours were then excised and immersed in 10% formalin for 24 h and processed for paraffin embedding. 5 μm slices of xenografts in paraffin blocks were made using microtome and different proteins detected by immunohistochemistry.

PC3 cells [3] = conditions: for PC3 2 hr IC50 change relative to HXR9: fold difference in IC50 relative to HXR9, 2 hr; for PC3 96 hr IC50 change relative to HXR9: fold difference in IC50 relative to HXR9, 96 hr
Protocol: as §1, §2

[4] = read-out: PC3 2 hr IC50 (±SD), PC3 cells, 2 hr, MTT, mean of 3 experiments ± SD
[5] = read-out: PC3 96 hr IC50 (±SD), PC3 cells, 96 hr, MTT, mean of 3 experiments ± SD

| Molecule | PC3 2 hr IC50 change relative to HXR9 (PC3 cells [3]) [fold] | PC3 96 hr IC50 change relative to HXR9 (PC3 cells [3]) [fold] | IC50 (PC3 cells [3]; [4]) [µM] | IC50 (PC3 cells [3]; [5]) [µM] | other results |
| --- | --- | --- | --- | --- | --- |
| CC(=O)O[C@@]12CO[C@@H]1C[C@H](O)[C@@]1(C)C(=O)[C@H](O)C3=C(C)[C@@H](OC(=O)[C@H](O)[C@@H](NC(=O)OC(C)(C)C)c4ccccc4)C[C@@](O)([C@@H](OC(=O)c4ccccc4)[C@H]21)C3(C)C [Docetaxel] |  |  |  |  | IC50 (PC3 cells [1]): 4 µM |
| WYKWMKKAARRRRRRRRR [HTL001, WYKWMKKAARRRRRRRRR] |  |  |  |  | inhibition at 10 µM (HOXB4/PBX2 dimers): 28.2%; Maximum % weight loss [2]: 0% |
| WYKWMKKHHRRRRRRRRR [HXR9KS3] | 1.53 | 2.53 | 19 | 17 |  |
| WYKWMKKRRRRRRRRR [HXR9KS3noH] | 1.32 | 2.05 | 22 | 21 |  |
| WYPAMKKHHRRRRRRRRR [CXR9, WYPAMKKHHRRRRRRRRR] |  |  |  |  | IC50 (PC3 cells [3]; 2 h): > 80 µM; IC50 (PC3 cells [3]; 96 h): > 80 µM |
| WYPWMKKAARRRRRRRRR [HXR9AS7] | 0.64 | 1.08 | 45 | 40 |  |
| WYPWMKKHHRRRRRRRRR [HXR9, WYPWMKKHHRRRRRRRRR] |  |  |  |  | Maximum % weight loss [2]: 0% |
| WYPWMKKRRRRRRRRR [HXR9noH] | 0.48 | 0.80 | 60 | 54 |  |
